Measured values from the NIST ThermoML archive (doi:10.1021/acs.jced.9b00846).
Numbers after ± are expanded uncertainties.

Conditions: Liquid, Vibrating tube method

CCC(C)CC [3-methylpentane]
Conditions	mass density [kg/m3]
283.15 K, 96 kPa	673.7 ± 0.8
283.15 K, 4984 kPa	678.4 ± 0.8
283.15 K, 9983 kPa	682.9 ± 0.8
283.15 K, 14976 kPa	687.2 ± 0.9
283.15 K, 20022 kPa	691.2 ± 0.9
283.15 K, 25054 kPa	695 ± 0.9
283.15 K, 29951 kPa	698.6 ± 0.9
283.15 K, 35044 kPa	702.1 ± 0.9
283.15 K, 40019 kPa	705.4 ± 1
283.15 K, 45032 kPa	708.6 ± 1
283.15 K, 50012 kPa	711.7 ± 1
283.15 K, 54940 kPa	714.6 ± 1.1
283.15 K, 59937 kPa	717.5 ± 1.1
283.15 K, 64969 kPa	720.3 ± 1.1
288.15 K, 123 kPa	669.3 ± 0.8
288.15 K, 4981 kPa	674.1 ± 0.8
288.15 K, 10014 kPa	678.9 ± 0.8
288.15 K, 14991 kPa	683.2 ± 0.9
288.15 K, 19942 kPa	687.3 ± 0.9
288.15 K, 25033 kPa	691.3 ± 0.9
288.15 K, 29989 kPa	695 ± 0.9
288.15 K, 35037 kPa	698.6 ± 1
288.15 K, 39987 kPa	701.9 ± 1
288.15 K, 45029 kPa	705.2 ± 1
288.15 K, 50061 kPa	708.4 ± 1
288.15 K, 54941 kPa	711.3 ± 1.1
288.15 K, 59951 kPa	714.3 ± 1.1
288.15 K, 65035 kPa	717.1 ± 1.1
293.15 K, 98 kPa	664.7 ± 0.8
293.15 K, 4913 kPa	669.7 ± 0.8
293.15 K, 9979 kPa	674.6 ± 0.8
293.15 K, 14916 kPa	679.1 ± 0.9
293.15 K, 19985 kPa	683.5 ± 0.9
293.15 K, 24964 kPa	687.5 ± 0.9
293.15 K, 30011 kPa	691.3 ± 0.9
293.15 K, 34951 kPa	694.9 ± 1
293.15 K, 40003 kPa	698.4 ± 1
293.15 K, 45015 kPa	701.8 ± 1
293.15 K, 49957 kPa	705 ± 1
293.15 K, 54949 kPa	708.1 ± 1.1
293.15 K, 60008 kPa	711.1 ± 1.1
293.15 K, 65001 kPa	714 ± 1.1
298.15 K, 123 kPa	660.1 ± 0.8
298.15 K, 4936 kPa	665.3 ± 0.8
298.15 K, 9999 kPa	670.4 ± 0.8
298.15 K, 15031 kPa	675.1 ± 0.9
298.15 K, 20036 kPa	679.5 ± 0.9
298.15 K, 25016 kPa	683.7 ± 0.9
298.15 K, 29992 kPa	687.6 ± 0.9
298.15 K, 34973 kPa	691.3 ± 1
298.15 K, 40043 kPa	694.9 ± 1
298.15 K, 45008 kPa	698.3 ± 1
298.15 K, 49987 kPa	701.6 ± 1
298.15 K, 54938 kPa	704.8 ± 1.1
298.15 K, 59982 kPa	707.8 ± 1.1
298.15 K, 65001 kPa	710.8 ± 1.1
303.15 K, 106 kPa	655.4 ± 0.8
303.15 K, 4970 kPa	660.9 ± 0.8
303.15 K, 9996 kPa	666.1 ± 0.8
303.15 K, 15043 kPa	671.1 ± 0.9
303.15 K, 20006 kPa	675.6 ± 0.9
303.15 K, 25024 kPa	679.9 ± 0.9
303.15 K, 29956 kPa	683.9 ± 0.9
303.15 K, 34990 kPa	687.7 ± 1
303.15 K, 39963 kPa	691.4 ± 1
303.15 K, 44991 kPa	694.9 ± 1
303.15 K, 49940 kPa	698.2 ± 1
303.15 K, 54932 kPa	701.5 ± 1.1
303.15 K, 59961 kPa	704.6 ± 1.1
303.15 K, 65012 kPa	707.7 ± 1.1
308.15 K, 109 kPa	650.6 ± 0.8
308.15 K, 4967 kPa	656.3 ± 0.8
308.15 K, 10001 kPa	661.8 ± 0.8
308.15 K, 14988 kPa	666.8 ± 0.9
308.15 K, 19945 kPa	671.5 ± 0.9
308.15 K, 25037 kPa	676 ± 0.9
308.15 K, 29968 kPa	680.1 ± 0.9
308.15 K, 35020 kPa	684 ± 1
308.15 K, 39963 kPa	687.8 ± 1
308.15 K, 44985 kPa	691.4 ± 1
308.15 K, 49992 kPa	694.8 ± 1
308.15 K, 54921 kPa	698.1 ± 1.1
308.15 K, 60008 kPa	701.4 ± 1.1
308.15 K, 64999 kPa	704.4 ± 1.1
313.15 K, 117 kPa	645.9 ± 0.8
313.15 K, 4981 kPa	651.9 ± 0.8
313.15 K, 9993 kPa	657.5 ± 0.8
313.15 K, 15145 kPa	662.9 ± 0.9
313.15 K, 20027 kPa	667.6 ± 0.9
313.15 K, 25088 kPa	672.2 ± 0.9
313.15 K, 30012 kPa	676.4 ± 0.9
313.15 K, 35003 kPa	680.4 ± 1
313.15 K, 40042 kPa	684.3 ± 1
313.15 K, 45054 kPa	688 ± 1
313.15 K, 49996 kPa	691.5 ± 1.1
313.15 K, 54926 kPa	694.8 ± 1.1
313.15 K, 60053 kPa	698.2 ± 1.1
313.15 K, 65063 kPa	701.3 ± 1.1
318.15 K, 107 kPa	641.1 ± 0.8
318.15 K, 4955 kPa	647.4 ± 0.8
318.15 K, 9991 kPa	653.3 ± 0.8
318.15 K, 15039 kPa	658.8 ± 0.9
318.15 K, 20021 kPa	663.7 ± 0.9
318.15 K, 25060 kPa	668.4 ± 0.9
318.15 K, 29991 kPa	672.8 ± 0.9
318.15 K, 34997 kPa	676.9 ± 1
318.15 K, 40044 kPa	680.9 ± 1
318.15 K, 44936 kPa	684.6 ± 1
318.15 K, 49998 kPa	688.3 ± 1.1
318.15 K, 55010 kPa	691.7 ± 1.1
318.15 K, 59996 kPa	695.1 ± 1.1
318.15 K, 65008 kPa	698.3 ± 1.2
323.15 K, 106 kPa	636.3 ± 0.8
323.15 K, 4980 kPa	642.9 ± 0.8
323.15 K, 9966 kPa	649 ± 0.8
